According to US9439432B2, “Phenylisoxazoline-based compound having herbicidal activity and use thereof” (MOGHU RESEARCH CENTER LTD, priority 2011, dated 2016):

Tests used:
Format in all cases: in vivo
Corn [1] = experiment: Pre-emergence treatment, phytotoxicity to corn; conditions: 500 g/ha, 4 weeks after spraying, scale 0 to 10 (0: no effects, 10: complete death)
Description: (§1) A rectangular plastic pot having a surface area of 300 cm^2 was filled with sandy loam soil and mixed bed soil which were mixed at a ratio of 1:1, and then, barnyardrass (Echinochloa crusgalli), large crabgrass (Digitaria sanguinalis), blackgrass (Alopecurus myosuroides), and annual bluegrass (Poa annua), which are grass weeds, were seeded thereto. In a pot that was prepared as described above, seeds of corn, soybean, cotton, wheat, and rice were seeded. The pots were irrigated, and one day after, chemicals were sprayed thereto. The spraying was performed by using a track sprayer (R&D Sprayer, USA) equipped with a Teejet 8002 (Spraying Systems Co., USA) nozzle, and a spraying amount was adjusted at 300 L/ha. A spraying solution was prepared by dissolving test materials or references in acetone and adding the same amount of 0.2%(v/v) tween 20 aqueous solution thereto. Application rates were 500, 250, 125, and 62.5 g/ha. The pots were placed in a greenhouse in which during day, the temperature was maintained at a temperature of 25 to 30° C., and during night, the temperature was maintained at a temperature of 15 to 25° C., and the pots were periodically irrigated. Four weeks after the spraying the test materials or References, effects and phytotoxicity of the respective weeds and crops were evaluated in a scale of 0 to 10 (0: no effects, 10: complete death), and results thereof are shown in Table 4 below.

Soybean [2] = experiment: Pre-emergence treatment, phytotoxicity to soybean; conditions: 500 g/ha, 4 weeks after spraying, scale 0 to 10 (0: no effects, 10: complete death)
Description: as §1

Cotton [3] = experiment: Pre-emergence treatment, phytotoxicity to cotton; conditions: 500 g/ha, 4 weeks after spraying, scale 0 to 10 (0: no effects, 10: complete death)
Description: as §1

Wheat [4] = experiment: Pre-emergence treatment, phytotoxicity to wheat; conditions: 500 g/ha, 4 weeks after spraying, scale 0 to 10 (0: no effects, 10: complete death)
Description: as §1

Rice [5] = experiment: Pre-emergence treatment, phytotoxicity to rice; conditions: 500 g/ha, 4 weeks after spraying, scale 0 to 10 (0: no effects, 10: complete death)
Description: as §1

Echinochloa crusgalli [6] = experiment: Pre-emergence treatment, herbicidal efficacy on barnyardgrass; conditions: 4 weeks after spraying
Description: as §1

Digitaria sanguinalis [7] = experiment: Pre-emergence treatment, herbicidal efficacy on large crabgrass; conditions: 4 weeks after spraying, scale 0 to 10
Description: as §1

Poa annua [8] = experiment: Pre-emergence treatment, herbicidal efficacy on annual bluegrass; conditions: 4 weeks after spraying, scale 0 to 10
Description: as §1

Alopecurus myosuroides [9] = experiment: Pre-emergence treatment, herbicidal efficacy on blackgrass; conditions: 4 weeks after spraying, scale 0 to 10
Description: as §1

Corn [10] = experiment: Post-emergence treatment, phytotoxicity to corn; conditions: post-emergence (about 3 leaf stage), 1,000 g/ha, 4 weeks after spraying, scale 0 to 10 (0: no effects, 10: complete death)
Description: as §1
(§2) Pots containing crops and weeds were prepared in the same manner as in Example 7, and then, in the second week in which crops and weeds entered into about 3 leaf stage, the test materials and the references were sprayed thereto in the same manner as described above. The rates were 1,000, 500, 250, and 125 g/ha. Four weeks after the spraying of the test materials or the references, herbicidal efficacy and phytotoxicity to the respective weeds and crops were evaluated in a scale of 0 to 10 (0: no effects, 10: complete death).

Soybean [11] = experiment: Post-emergence treatment, phytotoxicity to soybean; conditions: post-emergence (about 3 leaf stage), 1,000 g/ha, 4 weeks after spraying, scale 0 to 10 (0: no effects, 10: complete death)
Description: as §1, §2

Cotton [12] = experiment: Post-emergence treatment, phytotoxicity to cotton; conditions: post-emergence (about 3 leaf stage), 1,000 g/ha, 4 weeks after spraying, scale 0 to 10 (0: no effects, 10: complete death)
Description: as §1, §2

Wheat [13] = experiment: Post-emergence treatment, phytotoxicity to wheat; conditions: post-emergence (about 3 leaf stage), 1,000 g/ha, 4 weeks after spraying, scale 0 to 10 (0: no effects, 10: complete death)
Description: as §1, §2

Rice [14] = experiment: Post-emergence treatment, phytotoxicity to rice; conditions: post-emergence (about 3 leaf stage), 1,000 g/ha, 4 weeks after spraying, scale 0 to 10 (0: no effects, 10: complete death)
Description: as §1, §2

Echinochloa crusgalli [15] = experiment: Post-emergence treatment, herbicidal efficacy on barnyardgrass; conditions: 4 weeks after spraying, scale 0 to 10
Description: as §1, §2

Digitaria sanguinalis [16] = experiment: Post-emergence treatment, herbicidal efficacy on large crabgrass; conditions: 4 weeks after spraying, scale 0 to 10
Description: as §1, §2

Poa annua [17] = experiment: Post-emergence treatment, herbicidal efficacy on annual bluegrass; conditions: 4 weeks after spraying, scale 0 to 10
Description: as §1, §2

Alopecurus myosuroides [18] = experiment: Post-emergence treatment, herbicidal efficacy on blackgrass; conditions: 4 weeks after spraying, scale 0 to 10
Description: as §1, §2

[19] = 500 g/ha, scale 0 to 10 (0: no effects, 10: complete death)

Cc1ccccc1C1=NOC(C)(COCc2c(F)cccc2Cl)C1 (stereo not drawn) [Reference E]
Phytotoxicity, Corn (Corn [1]): 0
Phytotoxicity, Soybean (Soybean [2]): 0
Phytotoxicity, Cotton (Cotton [3]): 0
Phytotoxicity, Wheat (Wheat [4]): 0
Phytotoxicity, Rice (Rice [5]): 0
Herbicidal efficacy, Echinochloa crusgalli (Echinochloa crusgalli [6]; 62.5 g/ha, scale 0 to 10): 2
Herbicidal efficacy, Echinochloa crusgalli (Echinochloa crusgalli [6]; 125 g/ha, scale 0 to 10): 5
Herbicidal efficacy, Echinochloa crusgalli (Echinochloa crusgalli [6]; 250 g/ha, scale 0 to 10): 8
Herbicidal efficacy, Echinochloa crusgalli (Echinochloa crusgalli [6]; [19]): 10
Herbicidal efficacy, Digitaria sanguinalis (Digitaria sanguinalis [7]; 62.5 g/ha): 0
Herbicidal efficacy, Digitaria sanguinalis (Digitaria sanguinalis [7]; 125 g/ha): 5
Herbicidal efficacy, Digitaria sanguinalis (Digitaria sanguinalis [7]; 250 g/ha): 9
Herbicidal efficacy, Digitaria sanguinalis (Digitaria sanguinalis [7]; 500 g/ha): 10
Herbicidal efficacy, Poa annua (Poa annua [8]; 62.5 g/ha): 2
Herbicidal efficacy, Poa annua (Poa annua [8]; 125 g/ha): 5
Herbicidal efficacy, Poa annua (Poa annua [8]; 250 g/ha): 9
Herbicidal efficacy, Poa annua (Poa annua [8]; 500 g/ha): 10
Herbicidal efficacy, Alopecurus myosuroides (Alopecurus myosuroides [9]; 62.5 g/ha): 0
Herbicidal efficacy, Alopecurus myosuroides (Alopecurus myosuroides [9]; 125 g/ha): 0
Herbicidal efficacy, Alopecurus myosuroides (Alopecurus myosuroides [9]; 250 g/ha): 4
Herbicidal efficacy, Alopecurus myosuroides (Alopecurus myosuroides [9]; 500 g/ha): 9
Phytotoxicity, Corn (Corn [10]): 3
Phytotoxicity, Soybean (Soybean [11]): 1
Phytotoxicity, Cotton (Cotton [12]): 3
Phytotoxicity, Wheat (Wheat [13]): 0
Phytotoxicity, Rice (Rice [14]): 0
Herbicidal efficacy, Echinochloa crusgalli (Echinochloa crusgalli [15]; post-emergence, 125 g/ha): 0
Herbicidal efficacy, Echinochloa crusgalli (Echinochloa crusgalli [15]; post-emergence, 250 g/ha): 2
Herbicidal efficacy, Echinochloa crusgalli (Echinochloa crusgalli [15]; post-emergence, 500 g/ha): 5
Herbicidal efficacy, Echinochloa crusgalli (Echinochloa crusgalli [15]; post-emergence, 1,000 g/ha): 6
Herbicidal efficacy, Digitaria sanguinalis (Digitaria sanguinalis [16]; post-emergence, 125 g/ha): 0
Herbicidal efficacy, Digitaria sanguinalis (Digitaria sanguinalis [16]; post-emergence, 250 g/ha): 1
Herbicidal efficacy, Digitaria sanguinalis (Digitaria sanguinalis [16]; post-emergence, 500 g/ha): 6
Herbicidal efficacy, Digitaria sanguinalis (Digitaria sanguinalis [16]; post-emergence, 1,000 g/ha): 7
Herbicidal efficacy, Poa annua (Poa annua [17]; post-emergence, 125 g/ha): 0
Herbicidal efficacy, Poa annua (Poa annua [17]; post-emergence, 250 g/ha): 2
Herbicidal efficacy, Poa annua (Poa annua [17]; post-emergence, 500 g/ha): 6
Herbicidal efficacy, Poa annua (Poa annua [17]; post-emergence, 1,000 g/ha): 7
Herbicidal efficacy, Alopecurus myosuroides (Alopecurus myosuroides [18]; post-emergence, 125 g/ha): 0
Herbicidal efficacy, Alopecurus myosuroides (Alopecurus myosuroides [18]; post-emergence, 250 g/ha): 0
Herbicidal efficacy, Alopecurus myosuroides (Alopecurus myosuroides [18]; post-emergence, 500 g/ha): 2
Herbicidal efficacy, Alopecurus myosuroides (Alopecurus myosuroides [18]; post-emergence, 1,000 g/ha): 4

CC1(COCc2c(F)cccc2F)CC(c2ccccc2Br)=NO1 (stereo not drawn) [Compound 3, 3-(2-bromophenyl)-5-((2,6-difluorobenzyloxy)methyl)-5-methyl-4,5-dihydroisoxazole]
Phytotoxicity, Corn (Corn [1]): 2
Phytotoxicity, Soybean (Soybean [2]): 0
Phytotoxicity, Cotton (Cotton [3]): 0
Phytotoxicity, Wheat (Wheat [4]): 0
Phytotoxicity, Rice (Rice [5]): 0
Herbicidal efficacy, Echinochloa crusgalli (Echinochloa crusgalli [6]; 62.5 g/ha, scale 0 to 10): 10
Herbicidal efficacy, Echinochloa crusgalli (Echinochloa crusgalli [6]; 125 g/ha, scale 0 to 10): 10
Herbicidal efficacy, Echinochloa crusgalli (Echinochloa crusgalli [6]; 250 g/ha, scale 0 to 10): 10
Herbicidal efficacy, Echinochloa crusgalli (Echinochloa crusgalli [6]; [19]): 10
Herbicidal efficacy, Digitaria sanguinalis (Digitaria sanguinalis [7]; 62.5 g/ha): 10
Herbicidal efficacy, Digitaria sanguinalis (Digitaria sanguinalis [7]; 125 g/ha): 10
Herbicidal efficacy, Digitaria sanguinalis (Digitaria sanguinalis [7]; 250 g/ha): 10
Herbicidal efficacy, Digitaria sanguinalis (Digitaria sanguinalis [7]; 500 g/ha): 10
Herbicidal efficacy, Poa annua (Poa annua [8]; 62.5 g/ha): 4
Herbicidal efficacy, Poa annua (Poa annua [8]; 125 g/ha): 7
Herbicidal efficacy, Poa annua (Poa annua [8]; 250 g/ha): 8
Herbicidal efficacy, Poa annua (Poa annua [8]; 500 g/ha): 10
Herbicidal efficacy, Alopecurus myosuroides (Alopecurus myosuroides [9]; 62.5 g/ha): 4
Herbicidal efficacy, Alopecurus myosuroides (Alopecurus myosuroides [9]; 125 g/ha): 4
Herbicidal efficacy, Alopecurus myosuroides (Alopecurus myosuroides [9]; 250 g/ha): 5
Herbicidal efficacy, Alopecurus myosuroides (Alopecurus myosuroides [9]; 500 g/ha): 7

Cc1cccc(C2=NOC(C)(COCc3c(F)cccc3F)C2)c1 (stereo not drawn) [Reference F]
Phytotoxicity, Corn (Corn [1]): 1
Phytotoxicity, Soybean (Soybean [2]): 0
Phytotoxicity, Cotton (Cotton [3]): 0
Phytotoxicity, Wheat (Wheat [4]): 0
Phytotoxicity, Rice (Rice [5]): 0
Herbicidal efficacy, Echinochloa crusgalli (Echinochloa crusgalli [6]; 62.5 g/ha, scale 0 to 10): 0
Herbicidal efficacy, Echinochloa crusgalli (Echinochloa crusgalli [6]; 125 g/ha, scale 0 to 10): 1
Herbicidal efficacy, Echinochloa crusgalli (Echinochloa crusgalli [6]; 250 g/ha, scale 0 to 10): 5
Herbicidal efficacy, Echinochloa crusgalli (Echinochloa crusgalli [6]; [19]): 10
Herbicidal efficacy, Digitaria sanguinalis (Digitaria sanguinalis [7]; 62.5 g/ha): 1
Herbicidal efficacy, Digitaria sanguinalis (Digitaria sanguinalis [7]; 125 g/ha): 2
Herbicidal efficacy, Digitaria sanguinalis (Digitaria sanguinalis [7]; 250 g/ha): 6
Herbicidal efficacy, Digitaria sanguinalis (Digitaria sanguinalis [7]; 500 g/ha): 10
Herbicidal efficacy, Poa annua (Poa annua [8]; 62.5 g/ha): 0
Herbicidal efficacy, Poa annua (Poa annua [8]; 125 g/ha): 0
Herbicidal efficacy, Poa annua (Poa annua [8]; 250 g/ha): 5
Herbicidal efficacy, Poa annua (Poa annua [8]; 500 g/ha): 9
Herbicidal efficacy, Alopecurus myosuroides (Alopecurus myosuroides [9]; 62.5 g/ha): 0
Herbicidal efficacy, Alopecurus myosuroides (Alopecurus myosuroides [9]; 125 g/ha): 0
Herbicidal efficacy, Alopecurus myosuroides (Alopecurus myosuroides [9]; 250 g/ha): 0
Herbicidal efficacy, Alopecurus myosuroides (Alopecurus myosuroides [9]; 500 g/ha): 3
Phytotoxicity, Corn (Corn [10]): 2
Phytotoxicity, Soybean (Soybean [11]): 0
Phytotoxicity, Cotton (Cotton [12]): 0
Phytotoxicity, Wheat (Wheat [13]): 0
Phytotoxicity, Rice (Rice [14]): 0
Herbicidal efficacy, Echinochloa crusgalli (Echinochloa crusgalli [15]; post-emergence, 125 g/ha): 0
Herbicidal efficacy, Echinochloa crusgalli (Echinochloa crusgalli [15]; post-emergence, 250 g/ha): 3
Herbicidal efficacy, Echinochloa crusgalli (Echinochloa crusgalli [15]; post-emergence, 500 g/ha): 4
Herbicidal efficacy, Echinochloa crusgalli (Echinochloa crusgalli [15]; post-emergence, 1,000 g/ha): 6
Herbicidal efficacy, Digitaria sanguinalis (Digitaria sanguinalis [16]; post-emergence, 125 g/ha): 0
Herbicidal efficacy, Digitaria sanguinalis (Digitaria sanguinalis [16]; post-emergence, 250 g/ha): 3
Herbicidal efficacy, Digitaria sanguinalis (Digitaria sanguinalis [16]; post-emergence, 500 g/ha): 4
Herbicidal efficacy, Digitaria sanguinalis (Digitaria sanguinalis [16]; post-emergence, 1,000 g/ha): 6
Herbicidal efficacy, Poa annua (Poa annua [17]; post-emergence, 125 g/ha): 0
Herbicidal efficacy, Poa annua (Poa annua [17]; post-emergence, 250 g/ha): 3
Herbicidal efficacy, Poa annua (Poa annua [17]; post-emergence, 500 g/ha): 5
Herbicidal efficacy, Poa annua (Poa annua [17]; post-emergence, 1,000 g/ha): 6
Herbicidal efficacy, Alopecurus myosuroides (Alopecurus myosuroides [18]; post-emergence, 125 g/ha): 0
Herbicidal efficacy, Alopecurus myosuroides (Alopecurus myosuroides [18]; post-emergence, 250 g/ha): 0
Herbicidal efficacy, Alopecurus myosuroides (Alopecurus myosuroides [18]; post-emergence, 500 g/ha): 2
Herbicidal efficacy, Alopecurus myosuroides (Alopecurus myosuroides [18]; post-emergence, 1,000 g/ha): 4
